Test results reported in ChEMBL document CHEMBL3407463 (Eur J Med Chem, 2014).
Calls of active or inactive are those of the source. The rule behind the calls is not given here.

Columns and labels:
[1] = tested on: MCF7; assay: Cytotoxicity against human placental microsome aromatase expressing human MCF7 cells assessed as reduction in cell viability up to 15 uM after 3 to 6 days by MTT assay in presence of estradiol; type: functional, cell-based
[2] = tested on: MCF7; assay: Cytotoxicity against human placental microsome aromatase expressing human MCF7 cells at 1 to 15 uM after 2 to 6 days by LDH assay in presence of testosterone; type: functional, cell-based
[3] = biological target: T1, Aromatase (Homo sapiens, UniProt P11511); assay: Inhibition of human […] aromatase expressed in human MCF7 cells using [1beta-3H] androstenedione as substrate after 1 hr by liquid scintillation counting; type: cell-based
T1 sequence (P11511 whole entry): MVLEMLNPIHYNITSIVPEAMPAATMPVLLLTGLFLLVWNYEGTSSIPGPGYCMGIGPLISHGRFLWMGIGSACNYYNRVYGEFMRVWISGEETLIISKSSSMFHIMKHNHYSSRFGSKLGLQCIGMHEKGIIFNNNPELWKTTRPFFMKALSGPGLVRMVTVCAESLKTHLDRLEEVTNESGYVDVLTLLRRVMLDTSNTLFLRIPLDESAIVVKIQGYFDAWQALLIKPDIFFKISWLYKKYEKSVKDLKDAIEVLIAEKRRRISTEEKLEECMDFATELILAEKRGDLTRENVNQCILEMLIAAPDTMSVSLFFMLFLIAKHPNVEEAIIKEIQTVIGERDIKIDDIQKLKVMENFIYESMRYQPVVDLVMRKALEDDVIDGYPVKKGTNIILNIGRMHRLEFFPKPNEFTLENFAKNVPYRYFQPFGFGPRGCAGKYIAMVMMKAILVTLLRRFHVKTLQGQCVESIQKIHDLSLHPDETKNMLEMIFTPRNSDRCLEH

[4] = biological target: T1, Aromatase; assay: Inhibition of human […] aromatase expressed in human MCF7 cells using [1beta-3H] androstenedione as substrate at 10 uM after 1 hr by liquid scintillation counting; type: cell-based
[5] = tested on: MCF7; assay: Cytotoxicity against human placental microsome aromatase expressing human MCF7 cells assessed as reduction in cell viability at 1 to 2.5 uM after 2 days by MTT assay in presence of testosterone; type: functional
[6] = tested on: MCF7; assay: Cytotoxicity against human placental microsome aromatase expressing human MCF7 cells after 2 to 6 days by MTT assay in presence of testosterone; type: functional, cell-based
[7] = biological target: T1, Aromatase; assay: Inhibition of human placental microsome aromatase using [1beta-3H] androstenedione as substrate at 2 uM after 15 mins by liquid scintillation counting; settings: 0.25 h
[8] = tested on: MCF7; assay: Cytotoxicity against human placental microsome aromatase expressing human MCF7 cells at 1 to 15 uM by MTT assay in presence of testosterone; type: functional, cell-based; settings: TDE = time-dependent effect
[9] = tested on: MCF7; assay: Cytotoxicity against human placental microsome aromatase expressing human MCF7 cells assessed as reduction in cell viability at 5 to 15 uM after 2 days by MTT assay in presence of testosterone; type: functional, cell-based
[10] = biological target: T1, Aromatase; assay: Inhibition of human placental microsome aromatase using [1beta-3H] androstenedione as substrate after 15 mins by liquid scintillation counting
[11] = tested on: MCF7; assay: Cytotoxicity against human placental microsome aromatase expressing human MCF7 cells at 5 to 15 uM after 2 to 3 days by LDH assay in presence of testosterone; type: functional, cell-based
[12] = tested on: MCF7; assay: Cytotoxicity against human placental microsome aromatase expressing human MCF7 cells at 0.01 to 15 uM by MTT assay in presence of testosterone; type: functional, cell-based; settings: TDE = time-dependent effect
[13] = tested on: MCF7; assay: Cytotoxicity against human placental microsome aromatase expressing human MCF7 cells assessed as reduction in cell viability up to 5 uM after 3 to 6 days by MTT assay in presence of estradiol; type: functional, cell-based
[14] = tested on: MCF7; assay: Cytotoxicity against human placental microsome aromatase expressing human MCF7 cells assessed as reduction in cell viability up to 15 uM after 3 to 6 days by MTT assay in presence of testosterone; type: functional, cell-based

## C[C@]12C=CC(=O)C=C1[C@@]1(CO1)C[C@@H]1[C@@H]2CC[C@]2(C)C(=O)CC[C@@H]12
[1]
  Activity: Active
[2]
  Activity: inactive
[3]
  IC50: 730 nM
[4]
  inhibition at 10 µM: 95.3%
[5]
  Activity: Active
[6]
  Activity: Dose-dependent effect
[7]
  inhibition at 2 µM: 91.7%
[8]
  Activity: tde
[9]
  Activity: inactive
[10]
  IC50: 620 nM

## C=C1C[C@@H]2[C@H](CC[C@]3(C)C(=O)CC[C@@H]23)[C@]2(C)C1=CC(=O)[C@@H]1O[C@@H]12
[3]
  IC50: 1180 nM
[4]
  inhibition at 10 µM: 88.6%
[5]
  Activity: <25%
[6]
  Activity: Dose-dependent effect
[7]
  inhibition at 2 µM: 86.8%
[11]
  Activity: Active
[12]
  Activity: tde
[13]
  Activity: Active
[10]
  IC50: 810 nM

## C=C1C[C@H]2[C@@H]3CC[C@H](O)[C@@]3(C)CC[C@@H]2[C@@]2(C)C=CC(=O)C=C12
[1]
  Activity: Active
[2]
  Activity: inactive
[5]
  Activity: Active
[14]
  Activity: Active
[6]
  Activity: Dose-dependent effect
[8]
  Activity: tde
[9]
  Activity: inactive

## C[C@]12C=CC(=O)C=C1C(CO)=C[C@@H]1[C@@H]2CC[C@]2(C)C(=O)CC[C@@H]12
[1]
  Activity: Active
[2]
  Activity: inactive
[3]
  IC50: 980 nM
[4]
  inhibition at 10 µM: 84%
[5]
  Activity: Active
[6]
  Activity: Dose-dependent effect
[7]
  inhibition at 2 µM: 81%
[8]
  Activity: tde
[9]
  Activity: inactive
[10]
  IC50: 670 nM
